One assay concerns the target T1, USP7 (Homo sapiens, UniProt Q93009, C315A).
T1 construct: 0.25 nM His-His-USP7 (aa208-560, |C315A|) was incubated with compound; His-His (N)
Kind of assay: Inhibition of USP7 by Fluorescence Intensity (FLINT) readings, Ubiquitin-Rhodamine-110 substrate. Particulars: 0.25 nM His-His-USP7 (aa208-560), 60 minutes at 30° C. preincubation; Ki determined from IC50 according to Cer et al. The class given is biochemical. The gist of the method: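 Kinetic rate of Rhodamine-110 release from ubiquitin substrate (50 nM or 4 μM), read every 3 min for 21 min, after 60 min, 30 °C preincubation of 0.25 nM USP7 catalytic domain C315A with compound. Bicine pH 8.0 buffer, 10% DMSO; 11-point IC50 vs DMSO and no-enzyme controls, converted to Ki.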

In assay [1] the test system is Z138 mantle cell lymphoma tumour cell lines. Description: In vitro cytotoxicity, MTT assay. The format is cell-based. Particulars: Homo sapiens, Z-138; Z138 cells, exposed to the test compounds for 96 hours. The gist of the method:
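MTT viability read-out: after 96 hours of compound treatment, Z138 mantle cell lymphoma cells received MTT for 4 hours, and formazan production was quantified by absorbance at 540 nm.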
Background: Tetrazolium assays rely on reduction of a dye to a coloured formazan, in cell work by metabolically active cells.

T1 sequence (Q93009 208-560 C315A): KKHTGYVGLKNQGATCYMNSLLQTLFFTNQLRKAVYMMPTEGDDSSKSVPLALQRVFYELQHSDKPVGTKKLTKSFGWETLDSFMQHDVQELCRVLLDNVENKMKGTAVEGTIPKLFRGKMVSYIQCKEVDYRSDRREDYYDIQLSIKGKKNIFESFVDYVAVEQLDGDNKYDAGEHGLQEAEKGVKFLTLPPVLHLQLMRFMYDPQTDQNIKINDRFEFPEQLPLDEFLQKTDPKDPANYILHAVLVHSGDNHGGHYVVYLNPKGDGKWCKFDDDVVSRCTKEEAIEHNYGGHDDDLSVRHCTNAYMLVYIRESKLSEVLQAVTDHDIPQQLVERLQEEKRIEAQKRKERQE

For orientation: Ki means the equilibrium dissociation constant of an inhibitor or competing ligand from its target. In general, IC50 refers to the point on the concentration scale where inhibition reaches its midpoint. Read a high IC50 as lower potency. Compound `Nc1c(Oc2ccc(F)cc2)ncn(CC2(O)CCN(C(=O)[C@@H]3CCN(C(=O)Nc4nc5ccccc5s4)C[C@H]3c3ccccc3)CC2)c1=O` [Example 87, (3R,4R)-4-[4-[[5-amino-4-(4-fluorophenoxy)-6-oxo-pyrimidin-1-yl]methyl]-4-hydroxy-piperidine-1-carbonyl]-N-(1,3-benzothiazol-2-yl)-3-phenyl-piperidine-1-carboxamide] registered a Ki at USP7 of 88 nM. It took 45 nM to reach half-maximal inhibition in assay [1] (IC50).

For the compound `Nc1c(Oc2ccc(F)cc2)ncn(CC2(O)CCN(C(=O)[C@@H]3CCN(C(=O)c4cccc5cnccc45)C[C@H]3c3ccccc3)CC2)c1=O` [Example 102, 5-amino-6-(4-fluorophenoxy)-3-({4-hydroxy-1-[(3R,4R)-1-(isoquinoline-5-carbonyl)-3-phenylpiperidine-4-carbonyl]piperidin-4-yl}methyl)pyrimidin-4(3H)-one], the Ki on USP7 was 4.1 nM. In addition, half-maximal inhibition in assay [1] (IC50) required 9.31 nM.

Regarding `Cc1cnc(CN2CC[C@@H](C(=O)N3CC[C@](O)(Cn4cnc(Oc5ccc(Cl)c(F)c5)c(N)c4=O)C(F)(F)C3)[C@H](c3ccccc3)C2)cn1` [Example 148, 5-amino-6-(4-chloro-3-fluoro-phenoxy)-3-[[(4S)-3,3-difluoro-4-hydroxy-1-[(3R,4R)-1-[(5-methylpyrazin-2-yl)methyl]-3-phenyl-piperidine-4-carbonyl]-4-piperidyl]methyl]pyrimidin-4-one], at USP7, affinity was put at a Ki of 7.5 nM. The same compound returned an IC50 in assay [1] of 39.9 nM.
